According to BigSolDB 2.1:

CC(C)(Oc1ccc(C2CC2(Cl)Cl)cc1)C(=O)O (stereo not given)
solubility (mole fraction)
Conditions	278.15 K	283.15 K	288.15 K	293.15 K	298.15 K	303.15 K	308.15 K	313.15 K	318.15 K	323.15 K
in DMF	0.218	0.236	0.257	0.277	0.296	0.319	0.342	0.365	0.385	0.407
in ethanol	0.156	0.171	0.187	0.203	0.219	0.239	0.259	0.277	0.294	0.312
in ethylene glycol	0.0348	0.0395	0.044	0.0486	0.053	0.0592	0.0652	0.0711	0.077	0.0823
in n-propanol	0.0758	0.0854	0.0948	0.104	0.113	0.125	0.137	0.148	0.159	0.169
in water	5.95e-07	7.63e-07	9.11e-07	1.1e-06	1.31e-06	1.54e-06	1.77e-06	2.05e-06	2.33e-06	2.65e-06
